The values below come from patent US11312727B1, “Macrocyclic flu endonuclease inhibitors” (Janssen BioPharma, Inc., priority 2018, dated 2022).

Bounds are passed on as bounds.

Data set [1] relates to Influenza strain A549 A/WSN/33 (H1N1). Nature of the data set: microbe, parasite or virus in culture. Type of data set: cell-based. The conditions noted are these: Influenza A virus, A549, 20 h, A549 cells, influenza A/WSN/33 (H1N1), 20 hours incubation; read-out: A549_A(H1N1) EC50.
The next data set can be described thus: in vitro. The conditions noted are these: human, CC50, uninfected A549 cells, CellTiter-Glo. On the technique in general: ATP-based viability assays read luminescence as a measure of living cells.

One may read the EC50 as the concentration needed to bring the measured effect to its halfway point. By CC50 is commonly meant the concentration that lowers cell viability or growth by half. A high value points to lower toxicity to the cells. With `O=C1c2c(O)c(=O)ccn2N2CN1C[C@H]1C[C@@H]1COc1cc(F)c(F)c3c1[C@@H]2c1ccccc1SC3` (single isomer, unassigned) [Compound 127AA, (1a*S,11b*S,20a*S)-22,23-difluoro-17-hydroxy-1a,2,6,11b,20,20a-hexahydro-1H-5,4-(epiprop[1]en[1]yl[3]ylidene)-12,19-methanobenzo[6,7]thiepino[4,5-c]cyclopropa[k]pyrido[1,2-f][1]oxa[5,6,9]triazacyclotridecine-16,18-dione], the EC50 in data set [1] came to 1.5 nM. Moreover, in “in vitro”, the CC50 was over 200 nM.

On to `O=C1c2c(O)c(=O)ccn2N2CN1C[C@H]1C[C@@H]1COc1cc(F)c(F)c3c1[C@H]2c1ccccc1SC3` (single isomer, unassigned) [Compound 127BA, (1a*S,11b*R,20a*S)-22,23-difluoro-17-hydroxy-1a,2,6,11b,20,20a-hexahydro-1H-5,4-(epiprop[1]en[1]yl[3]ylidene)-12,19-methanobenzo[6,7]thiepino[4,5-c]cyclopropa[k]pyrido[1,2-f][1]oxa[5,6,9]triazacyclotridecine-16,18-dione], for which, in data set [1], the EC50 worked out at 1.4 nM. Besides, in the data set “in vitro”, the CC50 was over 200 nM.

Consider `CC(C)[C@@H]1/C=C/COc2c(ccc(F)c2F)[C@@H](c2ccccc2)N2CN1C(=O)c1c(O)c(=O)ccn12` (single isomer, unassigned) [Compound 128AA, (9*R,18*R,*E)-3,4-difluoro-12-hydroxy-9-isopropyl-18-phenyl-6,9-dihydro-18H-10,17-methanobenzo[b]pyrido[1,2-f][1]oxa[5,6,9]triazacyclotridecine-11,13-dione], for which the half-maximal effective concentration (EC50) in data set [1] was over 100 nM. The half-maximal cytotoxic concentration (CC50) in “in vitro” is over 200 nM.

Consider `CC(C)[C@H]1/C=C/COc2c(ccc(F)c2F)[C@@H](c2ccccc2)N2CN1C(=O)c1c(O)c(=O)ccn12` (single isomer, unassigned) [Compound 128AB, (9*S,18*R,*E)-3,4-difluoro-12-hydroxy-9-isopropyl-18-phenyl-6,9-dihydro-18H-10,17-methanobenzo[b]pyrido[1,2-f][1]oxa[5,6,9]triazacyclotridecine-11,13-dione], for which the half-maximal effective concentration (EC50) in data set [1] is 65 nM. In the data set “in vitro”, this molecule displayed a CC50 of over 200 nM.

As to `CC(C)[C@@H]1/C=C/COc2c(ccc(F)c2F)[C@H](c2ccccc2)N2CN1C(=O)c1c(O)c(=O)ccn12` (single isomer, unassigned) [Compound 128BA, (9*R,18*S,*E)-3,4-difluoro-12-hydroxy-9-isopropyl-18-phenyl-6,9-dihydro-18H-10,17-methanobenzo[b]pyrido[1,2-f][1]oxa[5,6,9]triazacyclotridecine-11,13-dione], the EC50 in data set [1] is over 100 nM. The same molecule gave a half-maximal cytotoxic concentration (CC50) in “in vitro” of over 200 nM.

In the case of `CC(C)[C@H]1/C=C/COc2c(ccc(F)c2F)[C@H](c2ccccc2)N2CN1C(=O)c1c(O)c(=O)ccn12` (single isomer, unassigned) [Compound 128BB], the EC50 in data set [1] turned out to be 3.9 nM. The molecule also gave a 50% cytotoxic concentration (CC50) in “in vitro” of over 200 nM.

`O=C1c2c(O)c(=O)ccn2N2CN1C/C=C\COc1c(cccc1C(F)(F)F)[C@H]2c1ccccc1` (single isomer, unassigned) [Compound 130A, (18*R,Z)-12-hydroxy-18-phenyl-4-(trifluoromethyl)-6,9-dihydro-18H-10,17-methanobenzo[b]pyrido[1,2-f][1]oxa[5,6,9]triazacyclotridecine-11,13-dione]: in data set [1], the EC50 came out at 4.8 nM. The molecule also yielded a CC50 in “in vitro” of over 200 nM.

Turning to `O=C1c2c(O)c(=O)ccn2N2CN1C/C=C\COc1c(cccc1C(F)(F)F)[C@@H]2c1ccccc1` (single isomer, unassigned) [Compound 130B, (18*S,Z)-12-hydroxy-18-phenyl-4-(trifluoromethyl)-6,9-dihydro-18H-10,17-methanobenzo[b]pyrido[1,2-f][1]oxa[5,6,9]triazacyclotridecine-11,13-dione], the EC50 in data set [1] was over 100 nM. The molecule also showed a 50% cytotoxic concentration (CC50) in the data set “in vitro” of over 200 nM.

Turning to `O=C1c2c(O)c(=O)ccn2N2CN1CC[C@@H]1C[C@H]1COc1cccc3c1[C@@H]2c1ccccc1SC3` (single isomer, unassigned) [Compound 131AA, (1*R,13*S,15*R)-7-hydroxy-17-oxa-24-thia-2,3,10-triazaheptacyclo[16.12.1.12,10.03,8.013,15.022,31.025,30]dotriaconta-4,18,20,22(31),25(30),26,28-heptaene-6,9-dione], the EC50 in data set [1] was determined as 4.7 nM. In the data set “in vitro”, this molecule showed a cytotoxic concentration (CC50) of over 200 nM.

Regarding `O=C1c2c(O)c(=O)ccn2N2CN1CCC1C[C@@H]1COc1cccc3c1[C@@H]2c1ccccc1SC3` (single isomer, unassigned) [Compound 131AB, (1*R,13*R,15*S)-7-hydroxy-17-oxa-24-thia-2,3,10-triazaheptacyclo[16.12.1.12,10.03,8.013,15.022,31.025,30]dotriaconta-4,18,20,22(31),25(30),26,28-heptaene-6,9-dione], the EC50 in data set [1] came out at 17 nM. In “in vitro”, the CC50 is over 200 nM.

Turning to `O=C1c2c(O)c(=O)ccn2N2CN1CC[C@@H]1C[C@H]1COc1cccc3c1[C@H]2c1ccccc1SC3` (single isomer, unassigned) [Compound 131BA, (1*S,13*S,15*R)-7-hydroxy-17-oxa-24-thia-2,3,10-triazaheptacyclo[16.12.1.12,10.03,8.013,15.022,31.025,30]dotriaconta-4,18,20,22(31),25(30),26,28-heptaene-6,9-dione], in data set [1], the EC50 is over 100 nM. The same molecule had a CC50 in the data set “in vitro” of over 200 nM.

Take `O=C1c2c(O)c(=O)ccn2N2CN1CC[C@H]1C[C@@H]1COc1cccc3c1[C@H]2c1ccccc1SC3` (single isomer, unassigned) [Compound 131BB, (1*S,13*R,15*S)-7-hydroxy-17-oxa-24-thia-2,3,10-triazaheptacyclo[16.12.1.12,10.03,8.013,15.022,31.025,30]dotriaconta-4,18,20,22(31),25(30),26,28-heptaene-6,9-dione]: in data set [1], the EC50 is over 100 nM. In the data set “in vitro”, this molecule had a half-maximal cytotoxic concentration (CC50) of over 200 nM.

Regarding `CC(C)[C@@H]1/C=C/COc2ccccc2[C@@H](c2ccccc2)N2CN1C(=O)c1c(O)c(=O)ccn12` (single isomer, unassigned) [Compound 132A, (9*R,18*R,*E)-12-hydroxy-9-isopropyl-18-phenyl-9,10-dihydro-6H,18H-10,17-methanobenzo[b]pyrido[1,2-f][1]oxa[5,6]diazacyclotridecine-11,13-dione], the concentration for a half-maximal effect (EC50) in data set [1] was over 100 nM. In “in vitro”, this molecule had a half-maximal cytotoxic concentration (CC50) of over 200 nM.

With `CC(C)[C@H]1/C=C/COc2ccccc2[C@H](c2ccccc2)N2CN1C(=O)c1c(O)c(=O)ccn12` (single isomer, unassigned) [Compound 132B, (9*S,18*S,*E)-12-hydroxy-9-isopropyl-18-phenyl-6,9-dihydro-18H-10,17-methanobenzo[b]pyrido[1,2-f][1]oxa[5,6,9]triazacyclotridecine-11,13-dione], in data set [1], the EC50 was 9.3 nM. In “in vitro”, this molecule returned a CC50 of over 200 nM.

Consider `Cc1c(F)ccc2c1OC/C=C\CN1CN([C@@H]2c2ccccc2)n2ccc(=O)c(O)c2C1=O` (single isomer, unassigned) [Compound 133A, (18*R,Z)-3-fluoro-12-hydroxy-4-methyl-18-phenyl-6,9-dihydro-18H-10,17-methanobenzo[b]pyrido[1,2-f][1]oxa[5,6,9]triazacyclotridecine-11,13-dione], for which the 50% effective concentration (EC50) in data set [1] was 4.1 nM. This molecule displayed a CC50 in “in vitro” of over 200 nM.

In the case of `Cc1c(F)ccc2c1OC/C=C\CN1CN([C@H]2c2ccccc2)n2ccc(=O)c(O)c2C1=O` (single isomer, unassigned) [Compound 133B, (18*S,Z)-3-fluoro-12-hydroxy-4-methyl-18-phenyl-6,9-dihydro-18H-10,17-methanobenzo[b]pyrido[1,2-f][1]oxa[5,6,9]triazacyclotridecine-11,13-dione], the concentration for a half-maximal effect (EC50) in data set [1] is over 100 nM. In the data set “in vitro”, this molecule yielded a half-maximal cytotoxic concentration (CC50) of over 200 nM.

As for `O=C1c2c(O)c(=O)ccn2N2CN1C/C=C\COc1c(OC(F)(F)F)cccc1[C@H]2c1ccccc1` (single isomer, unassigned) [Compound 134A, (18*R,Z)-12-hydroxy-18-phenyl-4-(trifluoromethoxy)-6,9-dihydro-18H-10,17-methanobenzo[b]pyrido[1,2-f][1]oxa[5,6,9]triazacyclotridecine-11,13-dione], the concentration giving a half-maximal response (EC50) in data set [1] was determined as 69.3 nM. This molecule also yielded a CC50 in “in vitro” of over 200 nM.

Regarding `O=C1c2c(O)c(=O)ccn2N2CN1C/C=C\COc1c(OC(F)(F)F)cccc1[C@@H]2c1ccccc1` (single isomer, unassigned) [Compound 134B, (18*S,Z)-12-hydroxy-18-phenyl-4-(trifluoromethoxy)-6,9-dihydro-18H-10,17-methanobenzo[b]pyrido[1,2-f][1]oxa[5,6,9]triazacyclotridecine-11,13-dione], the 50% effective concentration (EC50) in data set [1] is over 100 nM. The molecule further displayed a 50% cytotoxic concentration (CC50) in “in vitro” of over 200 nM.

With `Cc1ccc2c(c1F)OC/C=C\CN1CN([C@@H]2c2ccccc2)n2ccc(=O)c(O)c2C1=O` (single isomer, unassigned) [Compound 135A, (18*R,Z)-4-fluoro-12-hydroxy-3-methyl-18-phenyl-6,9-dihydro-18H-10,17-methanobenzo[b]pyrido[1,2-f][1]oxa[5,6,9]triazacyclotridecine-11,13-dione], in data set [1], the 50% effective concentration (EC50) worked out at 7.3 nM. The CC50 in the data set “in vitro” was over 200 nM.

For the molecule `Cc1ccc2c(c1F)OC/C=C\CN1CN([C@H]2c2ccccc2)n2ccc(=O)c(O)c2C1=O` (single isomer, unassigned) [Compound 135B, (18*S,Z)-4-fluoro-12-hydroxy-3-methyl-18-phenyl-6,9-dihydro-18H-10,17-methanobenzo[b]pyrido[1,2-f][1]oxa[5,6,9]triazacyclotridecine-11,13-dione], in data set [1], the EC50 was over 100 nM. This molecule gave a cytotoxic concentration (CC50) in the data set “in vitro” of over 200 nM.

For `O=C1c2c(O)c(=O)ccn2N2CN1C/C=C\COc1c(ccc(F)c1F)[C@H]2c1ccccc1C1CC1` (single isomer, unassigned) [Compound 136A, (18*R,*Z)-18-(2-cyclopropylphenyl)-3,4-difluoro-12-hydroxy-6,9-dihydro-18H-10,17-methanobenzo[b]pyrido[1,2-f][1]oxa[5,6,9]triazacyclotridecine-11,13-dione], the EC50 in data set [1] was 6.3 nM. The same molecule had a CC50 in “in vitro” of over 200 nM.
